According to PubChem BioAssay AID588495 (Sanford-Burnham Center for Chemical Genomics, 2011):
pEC50: −log10 of the molar value. Where “and” joins values, the source holds several entries; their conditions need not be identical. Equal entries are not always repeated. Calls of active or inactive are those of the source.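 The calls were made as follows: active = mean EC50 of 20 µM or lower; inactive = the rest.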

Molecular target: Neurotensin receptor type 2 (Homo sapiens) (UniProt O95665)
Test: beta-arrestin recruitment via NTR2 activation – imaging, NTR2-U2OS cells, beta-arrestin GFP imaging, selectivity assay for NTR1 agonist project, SAR follow-up (AID 588495)
Conditions: image-based GFP translocation

Sequence of Neurotensin receptor type 2 (Homo sapiens) (O95665 whole entry, looked up): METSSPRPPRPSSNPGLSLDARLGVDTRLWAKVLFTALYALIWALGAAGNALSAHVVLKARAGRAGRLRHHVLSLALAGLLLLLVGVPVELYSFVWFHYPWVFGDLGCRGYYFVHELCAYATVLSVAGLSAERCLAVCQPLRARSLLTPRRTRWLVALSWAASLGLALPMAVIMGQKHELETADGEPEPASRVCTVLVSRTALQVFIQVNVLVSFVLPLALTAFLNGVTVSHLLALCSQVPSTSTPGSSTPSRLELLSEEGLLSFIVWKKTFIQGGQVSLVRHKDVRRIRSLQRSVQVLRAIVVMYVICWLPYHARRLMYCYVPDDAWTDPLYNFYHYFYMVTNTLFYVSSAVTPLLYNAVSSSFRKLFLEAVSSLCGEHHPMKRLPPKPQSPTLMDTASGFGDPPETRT

Row | EC50 | pEC50 | SMILES
1 | > 40 µM (inactive) | – | COc1ccc(Cn2c(SCc3ccc(C)cc3)nc3cc(OC)c(OC)cc3c2=N)cc1Cl
2 | > 40 µM (inactive) | – | COc1ccccc1-c1nc(C(=O)N[C@@H](CC(C)C)C(=O)O)cn1-c1ccnc2ccccc12
3 | – | 5.08 | COc1cc2c3nnc(-c4ccc(Cl)cc4)c-3cn(Cc3ccccc3)c2cc1OC
4 | – | 5.38 and 5.48 | COc1cc2c3nnc(-c4ccc(F)cc4)c-3cn(Cc3ccc(C)cc3)c2cc1OC
5 | > 40 µM (inactive) | – | CCOc1cc2c(N3CCN(c4ccccc4OC)CC3)nc(-c3ccc(OC)c(OC)c3)nc2cc1OC
6 | > 40 µM (inactive) | – | Cc1ccc(-n2ncc3c(N4CCN(c5ccccc5Cl)CC4)ncnc32)c(C)c1
7 | > 40 µM (inactive) | – | Fc1ccc(-n2ncc3c(N4CCN(c5ccccc5)CC4)ncnc32)cc1
8 | > 40 µM (inactive) | – | COc1ccc(-c2nnc3c4cc(OC)c(OC)cc4n(Cc4ccccc4)cc2-3)cc1
9 | > 40 µM (inactive) | – | CCOC(=O)c1cc(-c2c(OC)cccc2OC)n(-c2ccnc3cc(Cl)ccc23)n1
10 | > 40 µM (inactive) | – | CCCSc1nc2cc(OC)c(OC)cc2c(=N)n1Cc1ccccc1Cl
11 | – | 5.01 | COc1cc2c3nnc(-c4ccc(F)cc4)c-3cn(Cc3ccc(F)cc3)c2cc1OC
12 | > 40 µM (inactive) | – | CN(C)S(=O)(=O)c1ccc(-c2csc(N/N=C/c3cccs3)n2)cc1
13 | > 40 µM (inactive) | – | COc1cccc(OC)c1-c1nc(C(=O)N[C@@H](CC(C)C)C(=O)O)cn1-c1ccnc2ccccc12
14 | inactive | – | COc1cc2c3nnc(-c4ccc(C)c(C)c4)c-3cn(Cc3ccc(C)cc3)c2cc1OC
15 | > 40 µM (inactive) | – | COc1ccccc1-c1nc(C(=O)N[C@@H](CC(C)C)C(=O)O)cn1-c1ccnc2cc(Cl)ccc12
16 | > 40 µM (inactive) | – | COc1cccc(OC)c1-c1cc(C(=O)N[C@@H](CC(C)C)C(=O)OC(C)(C)C)nn1-c1ccnc2cc(Cl)ccc12
17 | > 40 µM (inactive) | – | COc1cccc(OC)c1-c1nc(C(=O)N[C@@H](CC(C)C)C(=O)O)cn1-c1ccnc2cc(Cl)ccc12
18 | > 40 µM (inactive) | – | COc1ccccc1-c1cc(C(=O)N[C@@H](CC(C)C)C(=O)O)nn1-c1ccnc2cc(Cl)ccc12
19 | > 40 µM (inactive) | – | c1ccc(N2CCN(c3ncnc4c3cnn4-c3ccccc3)CC2)cc1
20 | – | 5.19 | COc1cc2c3nnc(-c4ccc(C)cc4)c-3cn(Cc3ccc(F)cc3)c2cc1OC
21 | – | 5.26 | COc1ccc(-c2nnc3c4cc(OC)c(OC)cc4n(Cc4ccc(C)cc4)cc2-3)cc1
22 | – | 5.36 | COc1cc2c3nnc(-c4ccc(C)c(C)c4)c-3cn(Cc3ccc(F)cc3)c2cc1OC
23 | > 40 µM (inactive) | – | Clc1cccc(-n2ncc3c(N4CCN(c5ccccc5)CC4)ncnc32)c1
24 | > 40 µM (inactive) | – | COc1cccc(OC)c1-c1cc(C(=O)O)nn1-c1ccnc2cc(Cl)ccc12
25 | > 40 µM (inactive) | – | COc1cccc(N2CCN(c3ncnc4c3cnn4-c3ccc(C)cc3C)CC2)c1
26 | > 40 µM (inactive) | – | COc1cc2nc(C3CCC3)nc(N3CCN(c4ccccc4OC)CC3)c2cc1OC
27 | > 40 µM (inactive) | – | COc1cc2nc(-c3ccccc3)nc(N3CCN(c4ccc(F)cc4)CC3)c2cc1OC
28 | > 40 µM (inactive) | – | COc1cccc(OC)c1-c1nc(C(=O)N[C@@H](CC(C)C)C(=O)O)cn1-c1ccc(C)cc1
29 | > 40 µM (inactive) | – | CC(C)C[C@H](NC(=O)c1nc(-c2ccnc3ccccc23)c(-c2ccccc2)s1)C(=O)O
